Results taken from patent publication US11986493B2 (University of Pittsburgh—Of the Commonwealth System of …, priority 2013, dated 2024).
Where two headings read alike, the source gives them in different places.

What was measured:
[1] = after inhalation
Description: Measurement was made on mixed venous blood using PCW pullback samples at baseline (pre-dose) and at the maximally tolerated dose.

[2] = tested on: hypoxic and normoxic subjects; conditions: Ingram et al. (Am J. Phsiol. 298:H331-H339 (2010)); cited from earlier work

O=NO [nitrite, sodium nitrite]
plasma nitrite concentration ([1]; 45 mg dose): 5 to 7 µM
plasma nitrite concentration ([1]; 90 mg dose): 8 to 10 µM
arterial and pulmonary vasodilation [2]: causes arterial and pulmonary vasodilation in hypoxic but not normoxic subjects
